System: 422866-222-R5-J1-PDC complex spheroid viability
Assay: Anticancer human tumor 422866-222-R5-J1-PDC patient-derived pancreatic adenocarcinoma cell line growth inhibition [POLQ]
Details: for IC50: curve of first compound; for viability, T/C: stronger effect = lower value
Outline: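 PDC + HUVEC + MSC complex spheroids; POLQ inhibitors ± partner drugs; top conc. at/near clinical Cmax, else 10 microM (SN-38 1 microM), half-log dilutions; 37 degrees C, 5% CO2.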

[1] = second compound 0.0316 µM, first compound 0.0316 µM
[2] = second compound 0.0316 µM, first compound 0.1 µM
[3] = second compound 0.0316 µM, first compound 0.316 µM
[4] = second compound 0.0316 µM, first compound 1 µM
[5] = second compound 0.0316 µM, first compound 3.16 µM
[6] = second compound 0.0316 µM, first compound 10 µM
[7] = second compound 0.1 µM, first compound 0.0316 µM
[8] = second compound 0.1 µM, first compound 0.1 µM
[9] = second compound 0.1 µM, first compound 0.316 µM
[10] = second compound 0.1 µM, first compound 1 µM
[11] = second compound 0.1 µM, first compound 3.16 µM
[12] = second compound 0.1 µM, first compound 10 µM
[13] = second compound 0.316 µM, first compound 0.0316 µM
[14] = second compound 0.316 µM, first compound 0.1 µM
[15] = second compound 0.316 µM, first compound 0.316 µM
[16] = second compound 0.316 µM, first compound 1 µM
[17] = second compound 0.316 µM, first compound 3.16 µM
[18] = second compound 0.316 µM, first compound 10 µM
[19] = second compound 1 µM, first compound 0.0316 µM
[20] = second compound 1 µM, first compound 0.1 µM
[21] = second compound 1 µM, first compound 0.316 µM
[22] = second compound 1 µM, first compound 1 µM
[23] = second compound 1 µM, first compound 3.16 µM
[24] = second compound 1 µM, first compound 10 µM
[25] = second compound 3.16 µM, first compound 0.0316 µM
[26] = second compound 3.16 µM, first compound 0.1 µM
[27] = second compound 3.16 µM, first compound 0.316 µM
[28] = second compound 3.16 µM, first compound 1 µM
[29] = second compound 3.16 µM, first compound 3.16 µM
[30] = second compound 3.16 µM, first compound 10 µM
[31] = second compound 10 µM, first compound 0.0316 µM
[32] = second compound 10 µM, first compound 0.1 µM
[33] = second compound 10 µM, first compound 0.316 µM
[34] = second compound 10 µM, first compound 1 µM
[35] = second compound 10 µM, first compound 3.16 µM
[36] = second compound 10 µM, first compound 10 µM
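Further: spheroids exposed to compounds for one week before readout.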
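Wherever viability, T/C is given: percent of DMSO vehicle wells luminescence so 100% = untreated viability.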

C#Cc1c(F)ccc2cc(O)cc(-c3ncc4c(N5CC6CCC(C5)N6)nc(OCC56CCCN5CC(F)C6)nc4c3F)c12 (stereo unspecified) + Nc1ccc(C#CCN(C(=O)Cc2ncc(C(F)(F)F)cc2C(F)(F)F)c2ccc(F)cc2)nn1
IC50 (second compound 0.0316 µM): 733 nM | IC50 (second compound 0.1 µM): 727 nM | IC50 (second compound 0.316 µM): 813 nM | IC50 (second compound 1 µM): 750 nM | IC50 (second compound 3.16 µM): 646 nM | IC50 (second compound 10 µM): 619 nM | viability, T/C [1]: 95.4% | viability, T/C [2]: 103% | viability, T/C [3]: 62.8% | viability, T/C [4]: 48.7% | viability, T/C [5]: 26.8% | viability, T/C [6]: 26% | viability, T/C [7]: 101% | viability, T/C [8]: 71.5% | viability, T/C [9]: 67.6% | viability, T/C [10]: 43.4% | viability, T/C [11]: 32.1% | viability, T/C [12]: 21.7% | viability, T/C [13]: 88.2% | viability, T/C [14]: 78.4% | viability, T/C [15]: 66.2% | viability, T/C [16]: 44.3% | viability, T/C [17]: 37.1% | viability, T/C [18]: 27.9% | viability, T/C [19]: 102% | viability, T/C [20]: 89.4% | viability, T/C [21]: 67.4% | viability, T/C [22]: 44.3% | viability, T/C [23]: 30.6% | viability, T/C [24]: 26% | viability, T/C [25]: 93.1% | viability, T/C [26]: 93% | viability, T/C [27]: 57% | viability, T/C [28]: 48.2% | viability, T/C [29]: 26.6% | viability, T/C [30]: 27.9% | viability, T/C [31]: 89.6% | viability, T/C [32]: 92.2% | viability, T/C [33]: 62.3% | viability, T/C [34]: 41.7% | viability, T/C [35]: 35.3% | viability, T/C [36]: 27.7%

CC(C)n1c(=O)n(C)c2cnc3cc(F)c(-c4ccc(OCCCN5CCCCC5)nc4)cc3c21 + Nc1ccc(C#CCN(C(=O)Cc2ncc(C(F)(F)F)cc2C(F)(F)F)c2ccc(F)cc2)nn1
IC50 (second compound 0.0316 µM): > 10000 nM | IC50 (second compound 0.1 µM): > 10000 nM | IC50 (second compound 0.316 µM): > 10000 nM | IC50 (second compound 1 µM): > 10000 nM | IC50 (second compound 3.16 µM): > 10000 nM | IC50 (second compound 10 µM): 9870 nM | viability, T/C [1]: 116% | viability, T/C [2]: 116% | viability, T/C [3]: 90.3% | viability, T/C [4]: 99.3% | viability, T/C [5]: 90.7% | viability, T/C [6]: 62.2% | viability, T/C [7]: 88.6% | viability, T/C [8]: 102% | viability, T/C [9]: 97.5% | viability, T/C [10]: 88.3% | viability, T/C [11]: 82.8% | viability, T/C [12]: 66.2% | viability, T/C [13]: 114% | viability, T/C [14]: 109% | viability, T/C [15]: 95.1% | viability, T/C [16]: 105% | viability, T/C [17]: 71.8% | viability, T/C [18]: 53.3% | viability, T/C [19]: 107% | viability, T/C [20]: 110% | viability, T/C [21]: 108% | viability, T/C [22]: 91.2% | viability, T/C [23]: 85.2% | viability, T/C [24]: 59.1% | viability, T/C [25]: 100% | viability, T/C [26]: 105% | viability, T/C [27]: 114% | viability, T/C [28]: 76.4% | viability, T/C [29]: 71.3% | viability, T/C [30]: 60.8% | viability, T/C [31]: 96.8% | viability, T/C [32]: 110% | viability, T/C [33]: 87.9% | viability, T/C [34]: 92.5% | viability, T/C [35]: 94.4% | viability, T/C [36]: 49.5%

CC1COCCN1c1cc(C2(O)CC3CCC(C2)O3)c2cnn(-c3ccn[nH]3)c2n1 (stereo unspecified) + Nc1ccc(C#CCN(C(=O)Cc2ncc(C(F)(F)F)cc2C(F)(F)F)c2ccc(F)cc2)nn1
IC50 (second compound 0.0316 µM): > 10000 nM | IC50 (second compound 0.1 µM): < 31.6 nM | IC50 (second compound 0.316 µM): < 31.6 nM | IC50 (second compound 1 µM): > 10000 nM | IC50 (second compound 3.16 µM): 10000 nM | IC50 (second compound 10 µM): < 31.6 nM | viability, T/C [1]: 72% | viability, T/C [2]: 39.4% | viability, T/C [3]: 40.7% | viability, T/C [4]: 74.5% | viability, T/C [5]: 73.5% | viability, T/C [6]: 61.1% | viability, T/C [7]: 58.2% | viability, T/C [8]: 39.4% | viability, T/C [9]: 48.5% | viability, T/C [10]: 71.6% | viability, T/C [11]: 83.6% | viability, T/C [12]: 63.8% | viability, T/C [13]: 61.3% | viability, T/C [14]: 37% | viability, T/C [15]: 42.2% | viability, T/C [16]: 74.8% | viability, T/C [17]: 73.8% | viability, T/C [18]: 59.9% | viability, T/C [19]: 64.3% | viability, T/C [20]: 39.5% | viability, T/C [21]: 37.3% | viability, T/C [22]: 71.4% | viability, T/C [23]: 65.5% | viability, T/C [24]: 57.9% | viability, T/C [25]: 97.4% | viability, T/C [26]: 38.7% | viability, T/C [27]: 36.9% | viability, T/C [28]: 77.2% | viability, T/C [29]: 63.2% | viability, T/C [30]: 69% | viability, T/C [31]: 60.7% | viability, T/C [32]: 41.5% | viability, T/C [33]: 47.1% | viability, T/C [34]: 83.8% | viability, T/C [35]: 65.3% | viability, T/C [36]: 63.4%

From PubChem BioAssay AID1963844 (Molecular Pharmacology Branch, DTP, NCI, 2024)
